According to US9409922B2, “Imidazopyridine macrocycles as inhibitors of human immunodeficiency virus replication” (priority 2014, dated 2016):

Tested on: NL-RLuc virus
Assay: Inhibition of HIV replication: NL-RLuc reporter virus in MT-2 cells, luciferase readout
Format: cell-based
Settings: Human immunodeficiency virus 1, MT2, 120 h, MT-2 cells infected with NL-RLuc virus, 5 days of incubation, 10% FBS, at least 2 experiments
Summary of the method: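 Renilla luciferase reporter virus (NL4-3 nef replaced), produced in 293T cells, infected MT-2 cells with serial compound dilutions for 5 days in RPMI 1640 with 10% FBS, 10 mM HEPES pH 7.55. Luciferase measured; EC50 from median effect equation, at least 2 experiments.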

Question: With `CCc1c(C)c([C@H](OC(C)(C)C)C(=O)O)c2n3cc(nc13)-c1cccc(c1)-c1cc(F)ccc1O[C@@H](C)CCCCOC1(C)CCN2CC1` [Example 55, (2S)-2-(tert-Butoxy)-2-[(22S)-5-ethyl-17-fluoro-4,22,28-trimethyl-21,27-dioxa-1,7,34-triazahexacyclo[26.2.2.1^6,^9.1^10,^14.0^2,^7.0^15,^20]tetratriaconta-2,4,6(34),8,10(33),11,13,15(20),16,18-decaen-3-yl]acetic acid] as the compound, how does the EC50 read?
Answer: 9 nM

Question: Which EC50 does the source give for `Cc1c([C@H](OC(C)(C)C)C(=O)O)c2n3cc(nc3c1C(C)C)-c1cccc(c1)-c1cc(F)ccc1O[C@@H](C)CCCCOC1(C)CCN2CC1` [Example 56, (2S)-2-(tert-Butoxy)-2-[(22S)-17-fluoro-4,22,28-trimethyl-5-(propan-2-yl)-21,27-dioxa-1,7,34-triazahexacyclo[26.2.2.1^6,^9.1^10,^14.0^2,^7.0^15,^20]tetratriaconta-2,4,6(34),8,10(33),11,13,15(20),16,18-decaen-3-yl]acetic acid] here?
Answer: 72 nM

Question: For `CCc1c(C)c([C@H](OC(C)(C)C)C(=O)O)c2n3cc(nc13)-c1cccc(c1)-c1cc(F)c(F)cc1O[C@@H](C)CCCCOC1(C)CCN2CC1` [Example 57, (2S)-2-(tert-Butoxy)-2-[(22S)-5-ethyl-17,18-difluoro-4,22,28-trimethyl-21,27-dioxa-1,7,34-triazahexacyclo[26.2.2.1^6,^9.1^10,^14.0^2,^7.0^15,^20]tetratriaconta-2,4,6(34),8,10(33),11,13,15(20),16,18-decaen-3-yl]acetic acid], which EC50 is on record?
Answer: 13 nM

Question: For `Cc1c([C@H](OC(C)(C)C)C(=O)O)c2n3cc(nc3c1Cl)-c1cccc(c1)-c1cc(F)ccc1O[C@@H](C)CCCCOC1(C)CCN2CC1` [Example 61, (2S)-2-(tert-Butoxy)-2-[(22S)-5-chloro-17-fluoro-4,22,28-trimethyl-21,27-dioxa-1,7,34-triazahexacyclo[26.2.2.1^6,^9.1^10,^14.0^2,^7.0^15,^20]tetratriaconta-2,4,6(34),8,10(33),11,13,15(20),16,18-decaen-3-yl]acetic acid], which EC50 is on record?
Answer: 15 nM

Question: For `Cc1c([C@H](OC(C)(C)C)C(=O)O)c2n3cc(nc3c1C(F)F)-c1cccc(c1)-c1cc(F)ccc1O[C@@H](C)CCCCOC1(C)CCN2CC1` [Example 63, (2S)-2-(tert-Butoxy)-2-[(22S)-5-(difluoromethyl)-17-fluoro-4,22,28-trimethyl-21,27-dioxa-1,7,34-triazahexacyclo[26.2.2.1^6,^9.1^10,^14.0^2,^7.0^15,^20]tetratriaconta-2,4,6(34),8,10(33),11,13,15(20),16,18-decaen-3-yl]acetic acid], which EC50 is on record?
Answer: 18 nM

Question: With `CC(=O)c1c(C)c([C@H](OC(C)(C)C)C(=O)O)c2n3cc(nc13)-c1cccc(c1)-c1cc(F)ccc1O[C@@H](C)CCCCOC1(C)CCN2CC1` [Example 64, (2S)-2-[(22S)-5-Acetyl-17-fluoro-4,22,28-trimethyl-21,27-dioxa-1,7,34-triazahexacyclo[26.2.2.1^6,^9.1^10,^14.0^2,^7.0^15,^20]tetratriaconta-2,4,6(34),8,10(33),11,13,15(20),16,18-decaen-3-yl]-2-(tert-butoxy)acetic acid] as the compound, how does the EC50 read?
Answer: 6 nM

Question: With `Cc1c([C@H](OC(C)(C)C)C(=O)O)c2n3cc(nc3c1C(C)(C)O)-c1cccc(c1)-c1cc(F)ccc1O[C@@H](C)CCCCOC1(C)CCN2CC1` [Example 65, (2S)-2-(tert-Butoxy)-2-[(22S)-17-fluoro-5-(2-hydroxypropan-2-yl)-4,22,28-trimethyl-21,27-dioxa-1,7,34-triazahexacyclo[26.2.2.1^6,^9.1^10,^14.0^2,^7.0^15,^20]tetratriaconta-2,4,6(34),8,10(33),11,13,15(20),16,18-decaen-3-yl]acetic acid] as the compound, how does the EC50 read?
Answer: 6 nM
